Assay [1] deals with human leukemia cell line T-ALL1 (with WT Notch1). In words: Cell cycle (PI staining, S-G2-M cells) and cell number, T-ALL1. In kind it is cell-based. The protocol:
FIG. 2A is a series of charts showing representative cell cycle profiles of human leukemia cell line T-ALL1 (with WT Notch1) treated with a vehicle (V) (for palbociclib (PD) or compound GD), PD (0.5 μM), or compound GD at 1, 2.5, 5, 10, and 20 μM for 6 days.
FIG. 2B is a histogram summarizing the cell cycle distribution of the T-ALL1 cell line in FIG. 2A. Data shown are mean±S.D. (n=6); *P<0.05 vs its vehicle controls, t-test.
FIG. 2C is a chart showing the percentage of S-G2-M cells in samples in FIGS. 2A and 2B. […]
(§1) Table 2: Experimental Procedures: sensitivity to CDK6 kinase activity inhibition was tested by incubating different cell lines in the presence of CDK6 inhibitor GD007/PBS for either 24 hours for detecting the status of pRB-780 phosphorylation, or 5 days for determining the effect of GD007 on cell proliferation. (1) By immunoblotting (WB), we will detect phospho-pRB-S^780, one of the substrates of CDK6 kinase; (2) By using FACS analysis, we will stain treated cells with Propidium Iodide (PI), a commonly used fluorescent intercalator, to measure the subpopulation of cell cycle to reveal any impact of CDK6 inhibition on cell proliferation; (3) cell numbers will be counted using hemocytometer.

Assay [2] has as its system phosphorylated pRB at SER-780 in MDA-MB231 cells. In words: Immunoblot of phosphorylated pRB (SER-780) and PI staining, MDA-MB231. In kind it is cell-based. As for the experimental part:
FIG. 5A is an image of a representative immunoblot showing the levels of phosphorylated pRB at SER-780 in MDA-MB231 and HPBALL cells following treatment of these cells with a vehicle, PD, or compound GD for 24 hours. Tubulin was used as loading control.
as §1
On the technique in general: In western blotting, separated proteins are transferred to a membrane and probed.

In assay [3] the test system is phosphorylated pRB at SER-780 in U251 cells. In words: Immunoblot of phosphorylated pRB (SER-780), U251. The class given is cell-based. As for the experimental part:
FIG. 5B is an image of a representative immunoblot showing the levels of phosphorylated pRB at SER-780 in U251 cells following treatment of these cells with a vehicle, PD, or compound GD for 24 hours. Tubulin was used as loading control.
as §1

The test system of assay [4] is phosphorylated pRB at SER-780 in U87 cells. In words: Immunoblot of phosphorylated pRB (SER-780), U87. The class given is cell-based, human. As for the experimental part: FIG. 5C is an image of a representative immunoblot showing the levels of phosphorylated pRB at SER-780 in U87 cells following treatment of these cells with a vehicle, PD, or compound GD for 24 hours. Tubulin was used as loading control.
as §1

In assay [5] the test system is differentiated SVF cells (white adipocyte formation). In words: Oil Red O staining of differentiated SVF cells with WAT inducers. In kind it is cell-based. Conditions: vs vehicle. As for the experimental part: FIG. 8A is an image of Oil Red O staining of differentiated SVF cells treated with a vehicle or compound GD (5 μM) in the presence of white adipose tissue (WAT) inducers. Scale bar: 100 μM
FIG. 8C is an image of Oil Red O staining of differentiated SVF cells treated with a vehicle or compound GD (0.1 μM) in the presence of white adipose tissue (WAT) inducers. Scale bar: 400 μM for the top 2 images, and 100 μM for the bottom two images.
(§2) Beige cells are associated with protection against obesity and metabolic syndrome (WO 2017/161253). Accordingly, compound GD and related compounds of the invention can be used for treating obesity and related metabolic diseases.

The subject of assay [6] is differentiated SVF cells (beige cell formation). In words: Oil Red O staining of differentiated SVF cells with BAT inducers. The following applies: GD 5 μM, FIG. 8B. The class given is cell-based. The protocol:
FIG. 8B is an image of Oil Red O staining of differentiated SVF cells treated with a vehicle or compound GD (5 μM) in the presence of brown adipose tissue (BAT) inducers. Scale bar: 100 μM
as §2

In assay [7] the test system is A549 (lung cancer cells) xenograft tumors. In words: A549 xenograft mouse model. In kind it is in vivo. The following applies: female Nod/Scid mice. As for the experimental part:
A549 cells (3×10^5/each side) were inoculated ectopically in female Nod/Scid mice. One week after inoculation, tumor bearing mice were treated with GD at 200 mg/kg/day or PBS by oral gavage for 21 days. Data shown are mean±S.D. (n=8 for each group), *p<0.05, t-test, GD vs. PBS.
FIG. 10B is a graph showing body weight of two groups of mice during the observation time. Body weights shown are mean±S.D. (n=4 for each group).
We examined the therapeutic efficacy of GD against A549 (lung cancer cells) xenograft tumors. A549 cells (3×10^5 per side in 100 μl of 50% Matrigel) were inoculated ectopically in female Nod/Scid mice on both sides. When tumor sizes reached ˜50 mm^3, animals were divided into 2 groups (n=4 mice per group), and treated with PBS or GD at dose of 200 mg/kg/day over a 21-day period (Kwapisz, supra).
Tumor sizes were measured with standard calipers every day and tumor volumes were calculated using standard methods (caliper measurements are commonly collected along the longest two dimensions of the tumor x/y plane only, with the z-axis dimension assumed to be the same as the shortest dimension) (Tomayko et al., Cancer Chemother. Pharmacol. 24:148-154, 1989). Weekly body weights were measured at designed times. At the end of the experiments, all of the tumors were isolated from the mice and weighed.

A further assay has as its system Prostate Cancer: PC-3. In words: pRB-780 immunoblot, PC-3. The class given is cell-based. The following applies: WB: P-RB-780. The protocol:
as §1

“Also recorded” adds a separate entry of the source.

The source of these data is US12312346B2, “Pyridopyrimidine compounds and methods of their use” (Tufts Medical Center, Inc., priority 2018, dated 2025).

One may read the IC50 as the midpoint of a concentration-inhibition curve.

Consider `CC(=O)c1c(C)c2cnc(Nc3nc(CN4CCNCC4)cs3)nc2[nH]c1=O` [Compound GD, 6-acetyl-5-methyl-2-((4-(piperazin-1-ylmethyl)thiazol-2-yl)amino)pyrido[2,3-d]pyrimidin-7(8H)-one], for which the concentration for half-maximal inhibition (IC50) in assay [1] (Homo sapiens, TALL-1, 144 h, T-ALL1, 6 days, read-out: IC50 (percentage of S-G2-M cells, growth inhibition)) is approximately 1100 nM. Besides, the “Compound GD Efficacy” value was “Efficacious” in assay [1] (Leukemic cells: TALL1, PI Staining, and cell number counting); “Efficacious” in assay [2] (MDA-MB231, PI staining and WB: P-RB-780); “Efficacious” in assay [3] (Brain Tumor: U251, WB: P-RB-780); “Efficacious” in assay [4] (Brain Tumor: U87 human primary glioblastoma cell line, WB: P-RB-780); “No” with Prostate Cancer: PC-3. Moreover, the pRB phosphorylation entry in assay [2] (breast cancer cell line MDA-MB231, 24 hours) is reported as “inhibits pRB phosphorylation”; in assay [3] (glioblastoma cell line U251, 24 hours), “inhibits pRB phosphorylation”; in assay [4] (glioblastoma cell line U87, 24 hours) it was “inhibits pRB phosphorylation”. For the same molecule, the white adipocyte formation entry in assay [5] (GD 0.1 μM, FIG. 8C) was “inhibited white adipocyte formation”; in assay [5] (GD 5 μM, FIG. 8A) it was “inhibited white adipocyte formation”. For the same molecule, the beige cell formation entry in assay [6] is “induced beige cell formation”. Further, the “tumor weights vs PBS” value in assay [7] (200 mg/kg/day for 21 days, end of experiment, FIGS. 10D-10E) is reported as “reduced; also recorded: decreased tumor weights”. In addition, the “tumor volumes (xenograft tumor growth) vs PBS” value in assay [7] (200 mg/kg/day oral gavage for 21 days, FIG. 10A) is given as “reduced; also recorded: suppressed xenograft tumor growth”.
